How the values were obtained:
Cannabinoid receptor 2 = Cannabinoid receptor 2 (Homo sapiens, UniProt P34972); experiment: CB Receptor Radioligand Binding Assay (Ki)
Description: IC50 values for test compounds were determined from nonlinear regression analysis of data collected from ligand displacement experiments. The inhibition constant (Ki) was calculated from IC50 value by the Cheng and Prusoff equation.

[1] = target: Transient receptor potential cation channel subfamily V member 1 (Homo sapiens, UniProt Q8NER1); experiment: TRPV1 Channel Activity Assay
Transient receptor potential cation channel subfamily V member 1, sequence (Q8NER1 whole entry): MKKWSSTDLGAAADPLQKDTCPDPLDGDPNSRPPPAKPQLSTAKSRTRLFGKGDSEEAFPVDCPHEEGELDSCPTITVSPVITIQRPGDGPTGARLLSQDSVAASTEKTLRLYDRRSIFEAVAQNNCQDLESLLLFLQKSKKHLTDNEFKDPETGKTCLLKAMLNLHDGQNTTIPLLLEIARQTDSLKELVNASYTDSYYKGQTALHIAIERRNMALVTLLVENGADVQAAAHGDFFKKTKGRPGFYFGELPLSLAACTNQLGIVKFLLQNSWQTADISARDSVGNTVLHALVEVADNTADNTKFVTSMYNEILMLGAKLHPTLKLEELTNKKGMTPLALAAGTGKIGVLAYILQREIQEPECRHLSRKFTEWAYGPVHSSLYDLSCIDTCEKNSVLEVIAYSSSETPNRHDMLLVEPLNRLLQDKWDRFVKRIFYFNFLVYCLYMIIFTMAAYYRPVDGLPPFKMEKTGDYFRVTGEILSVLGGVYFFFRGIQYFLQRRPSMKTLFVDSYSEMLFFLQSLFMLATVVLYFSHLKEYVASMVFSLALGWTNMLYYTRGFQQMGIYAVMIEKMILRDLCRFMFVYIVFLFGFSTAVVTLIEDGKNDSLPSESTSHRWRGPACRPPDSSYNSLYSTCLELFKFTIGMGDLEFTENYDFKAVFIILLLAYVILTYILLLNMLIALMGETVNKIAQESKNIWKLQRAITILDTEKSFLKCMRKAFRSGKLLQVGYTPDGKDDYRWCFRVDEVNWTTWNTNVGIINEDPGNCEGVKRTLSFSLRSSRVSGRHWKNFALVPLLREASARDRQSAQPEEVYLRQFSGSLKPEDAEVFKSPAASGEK
Description: The effect of the substances on Ca2+ influx was determined by using HEK-293 cells stably overexpressing recombinant human TRPV1 cDNA. The cells were loaded with Fluo-4, a selective intracellular fluorescent probe for Ca2+. Experiments were carried out by measuring cell fluorescence before and after the addition of the test compounds at various concentrations. Agonist activity was determined in comparison to the maximum Ca2+ influx due to the application of 4 uM ionomycin. EC50 values were determined as the concentration of test substances required to produce half-maximal increases in [Ca2+]i. All determinations were at least performed in triplicate. Curve fitting (sigmoidal dose-response variable slope) and parameter estimation were performed with GraphPad Prism (GraphPad Software Inc., San Diego, CA).

Cannabinoid receptor 2, sequence (P34972 whole entry): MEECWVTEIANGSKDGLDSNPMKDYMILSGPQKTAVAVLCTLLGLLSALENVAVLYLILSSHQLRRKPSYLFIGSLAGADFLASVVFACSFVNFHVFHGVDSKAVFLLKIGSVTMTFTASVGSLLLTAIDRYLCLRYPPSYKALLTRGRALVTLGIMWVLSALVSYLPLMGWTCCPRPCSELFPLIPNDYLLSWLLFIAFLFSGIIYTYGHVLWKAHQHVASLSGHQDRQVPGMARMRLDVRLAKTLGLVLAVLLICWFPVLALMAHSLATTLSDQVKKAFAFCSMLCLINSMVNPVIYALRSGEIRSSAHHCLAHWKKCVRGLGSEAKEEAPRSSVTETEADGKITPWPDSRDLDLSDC

`CCCCCCCC/C=C\CCCCCCCC(=O)N[C@H]1C[C@@H]1O` [cyclopropanolamide, 11b] was tested, and the Ki (Cannabinoid receptor 2) was 2420 nM and the EC50 [1] was 19 nM.
With `CCCCCCCC/C=C\CCCCCCCC(=O)N[C@H]1C[C@H]1O` [cyclopropanolamide, 14b] the Ki (Cannabinoid receptor 2) was 1630 nM and the EC50 [1] was 180 nM.

Reference: BindingDB's records for doi:10.1021/jm900130m (Universita Del Piemonte Orientale, 2009)
